Measured values taken from patent US8151795B2, “Method of demand valve oxygen therapy for rapid abort of cluster headache” (Linde AG, priority 2008, dated 2012).
Where “and” joins values, the source holds several entries; their conditions need not be identical. Equal entries are not always repeated. Where two headings read alike, the source gives them in different places.

Tests used:
[1] = system: cluster headache patients; details: nasal spray at doses of 5 and 10 mg; cited from earlier work
[2] = system: patients with episodic and chronic cluster headache; details: episodic and chronic disease; cited from earlier work
[3] = system: cluster headache patients; details: cited from earlier work
cerebral blood flow [4] = details: 5% carbon dioxide; young men; cited from earlier work
[5] = system: pulmonary ventilation rate; details: increase of about 0.25% alveolar carbon dioxide; cited from earlier work
Extracerebral Flow Index = details: cluster headache patients during headache interval, during 100% oxygen inhalation; cited from earlier work
cerebral blood flow [6] = details: cited from earlier work
[7] = system: cluster headache patients; details: cited from earlier work; remark: listed apart in the source
normal human subjects = details: cited from earlier work
[8] = system: cluster headache sufferers
From the text: It is critical that the cluster headache sufferer fully inhale and exhale as completely as possible during the first three phases of the method of the present invention, in order to insure more complete ventilation of the lungs during hyperventilation and the expelling of carbon dioxide, a vasodilative agent, as rapidly as possible. The four phases of the invented demand valve method are herein described in more detail.
Taking three to four very deep breaths of oxygen from the demand valve, exhaling and inhaling as completely as possible with each breath, starts the process of clearing the residual Nitrogen from the lungs and also starts the shift into hyperoxia, which can be defined as having more oxygen in the blood than normal.
In Phase 3, slow hyperventilation, which has a recommended respiration rate of 30 breaths per minute, the purpose is to maintain the benefits of hyperventilation, respiratory alkalosis, hypocapnia, and hyperoxia, but at a more comfortable respiration rate. […] The cluster headache sufferer should maintain this respiration rate until the cluster headache pain has clearly subsided.

[9] = system: cluster headache patients; details: cited from earlier work; for headache response: Rozen 2004; for subjects in whom oxygen is effective: standard of care continuous flow
[10] = after 10 minutes of oxygen inhalation

In the case of `CN(C)CCc1c[nH]c2ccc(C[C@H]3COC(=O)N3)cc12` [Zolmitriptan], the “acute treatment of cluster headache” value [1] is listed as “effective and tolerable”.

In the case of `O=O` [hyperbaric oxygen], the prophylactic effect [2] is given as “no significant prophylactic effect”.

In the case of `CNS(=O)(=O)Cc1ccc2[nH]cc(CCN(C)C)c2c1` [sumatriptan], the “patients in whom effective (pain free in 20 minutes)” value ([3]; 6 mg injected subcutaneously, double blind placebo controlled trials) is listed as “about 75%” and the “lower effectiveness in chronic than in episodic cluster” value ([3]; sumatriptan injection (Rozen 2002)) is listed as 8%.

For `O=C=O` [carbon dioxide], the “increase in CBF” value (cerebral blood flow [4]) is given as 59% and the “increase in pulmonary ventilation rate” value [5] is given as 100%.

For `O=O` [oxygen], the EFI values (Extracerebral Flow Index) is listed as 7+/−2%, the “decrease in CBF” value (cerebral blood flow [6]; Floyd 2003, transition from air to 100% O2 at 1.0 ATA, MRI) is listed as 33% and the “CBF values for temporal cortex and basal ganglia” value (cerebral blood flow [6]; Kawamura 1991, after 100% oxygen for five minutes, five cluster headache patients) is listed as “significantly decreased below normal values”. For the same compound, the “decrease of cerebral blood flow” value (cerebral blood flow [6]; Kety, healthy young male volunteers) was “approximately 13%”, the “reduction of Fg (CBF in gray brain matter)” value (cerebral blood flow [6]; Sakai 1979, normal volunteers of both sexes) was 9.4+/−5.4% and the “average decrease of superficial temporal artery pulse amplitude” value [7, 10] was 30%. The “patients with decreased pulse amplitude of superficial temporal artery, symptomatic side” value [7, 10] was 15 of the 16, the “headache subsiding almost completely” value ([7]; after 15 minutes, 16 patients studied) was 12 patients and the “patients reporting at least some relief” value ([7]; after breathing 100% oxygen for 10 minutes) was 15 of 16. For the same compound, the toxic effects (normal human subjects; Kafer 1971, within 3 hours of exposure) was “no toxic effects”, the “duration for which exposure is safe” value (normal human subjects; Sackner 1975, atmospheric pressure) was “less than 6 hours” and the “earliest occurrence of substernal stress after start of oxygen breathing” value (normal human subjects; Sackner 1975) was 4 h. The “re-attacks (attack 15 to 45 minutes after successful abort), incidence per aborts” value ([8]; Kip pain level high (7-8) and abort times less than 15 min) was 1 out of 4, the “success rate of aborting cluster headache” value ([8]; demand valve method, chronic sufferers over 50, attacks of Kip 8 pain level or below) was 95% and > 95% and the “reduction of time for complete abort vs non-rebreathing mask with 15 l/min continuous flow oxygen” value ([8]; demand valve method, same pain level) was about 50%. For the same compound, the time to abort ([8]; demand valve method, the one Kip 9 cluster headache recorded) was 25 min, the “adverse effects or symptoms” value ([8]; many months of continuous use, other than dry mouth) was “no adverse effects or symptoms encountered” and the “re-attacks after extending oxygen use after abort” value ([8]; total of 20 minutes of continuous oxygen inhalation) was “largely or totally eliminated”. For the same compound, the “time to being effective” value ([9]; 7 to 12 l/min continuous flow, non-rebreathing mask) was at most 5 min, the “adverse effects of oxygen for cluster headache” value ([9]; Ekbom 2002, Matharu 2003) was “no established adverse effects” and the “patients obtaining significant relief from cluster pain” value ([9]; Kudrow 1981, cessation of pain within 15 minutes for at least 7 of 10 attacks) was 75%. For the same compound, the least benefit ([9]; Kudrow 1981, chronic patients over 49 years of age) was 57%, the greatest benefit ([9]; Kudrow 1981, episodic patients under 50 years of age) was 92.9% and the headache response ([9]; 7-10 l/min flow rate) was “no change in headache intensity”. For the same compound, the headache response ([9]; higher flow rate (15 l/min)) was “complete or near-complete headache alleviation”, the patients having success ([9]; chronic patients, standard of care oxygen therapy) was 68.4% and the patients responding favorably ([9]; episodic patients, standard of care oxygen therapy) was 78%. For the same compound, the “subjects in whom oxygen is effective” value ([9]; non-rebreathing mask) was about 70%, the “subjects in whom oxygen is effective” value ([9]; non-rebreathing mask, listed as 100% oxygen) was 70% and the “patients noting oxygen simply delays the attack rather than aborting it” value ([9]; standard of care method (Matharu 2003)) was “up to 25%”.
